The record followed here is ChEMBL document CHEMBL6074668 (J Med Chem, 2024).

What all share (type): functional, cell-based
Assay [1] concerns the target T1, Kappa-type opioid receptor (Homo sapiens, UniProt P41145). The experiment in a line: Agonist activity at human kappa opioid receptor expressed in CHO-K1 cells assessed as inhibition of forskolin-stimulated cAMP accumulation at 10 uM by HitHunter assay based luminescence analysis.
Assay [2] has as its target T2, Mu-type opioid receptor (Homo sapiens, UniProt P35372). Briefly: Agonist activity at human mu opioid receptor expressed in CHO-K1 cells assessed as inhibition of forskolin-stimulated cAMP accumulation at 10 uM by HitHunter assay based luminescence analysis. A general note: cAMP levels reflect the balance of adenylyl cyclase and phosphodiesterase activity.
For assay [3], the target named is T2, Mu-type opioid receptor. The experiment in a line: Agonist activity at human mu opioid receptor expressed in CHO-K1 cells assessed as inhibition of forskolin-stimulated cAMP accumulation by HitHunter assay based luminescence analysis relative to control.
In assay [4] the target is T1, Kappa-type opioid receptor. The experiment in a line: Agonist activity at human kappa opioid receptor expressed in CHO-K1 cells assessed as inhibition of forskolin-stimulated cAMP accumulation by HitHunter assay based luminescence analysis relative to control.
In assay [5] the target is T1, Kappa-type opioid receptor. Briefly: Agonist activity at human kappa opioid receptor expressed in CHO-K1 cells assessed as inhibition of forskolin-stimulated cAMP accumulation by HitHunter assay based luminescence analysis.
Assay [6] addresses Delta-type opioid receptor (Homo sapiens) (UniProt P41143). The experiment in a line: Agonist activity at human delta opioid receptor expressed in CHO-K1 cells assessed as inhibition of forskolin-stimulated cAMP accumulation at <1 uM by HitHunter assay based luminescence analysis.

Calls of active or inactive are those of the source. The rule behind the calls is not given here. Where only a bound is given, the exact number is not on record here.

T1 sequence (P41145 whole entry): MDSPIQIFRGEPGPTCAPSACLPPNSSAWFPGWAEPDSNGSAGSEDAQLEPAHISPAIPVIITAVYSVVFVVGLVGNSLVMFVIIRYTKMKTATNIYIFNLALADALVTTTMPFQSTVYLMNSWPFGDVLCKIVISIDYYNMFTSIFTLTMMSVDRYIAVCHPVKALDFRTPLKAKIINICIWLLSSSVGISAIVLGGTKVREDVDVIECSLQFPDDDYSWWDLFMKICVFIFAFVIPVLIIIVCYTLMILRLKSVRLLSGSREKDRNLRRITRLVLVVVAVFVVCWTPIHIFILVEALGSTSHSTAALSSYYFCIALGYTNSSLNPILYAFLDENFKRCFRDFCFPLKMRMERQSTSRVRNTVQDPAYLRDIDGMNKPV
Sequence of Delta-type opioid receptor (Homo sapiens) (P41143 whole entry): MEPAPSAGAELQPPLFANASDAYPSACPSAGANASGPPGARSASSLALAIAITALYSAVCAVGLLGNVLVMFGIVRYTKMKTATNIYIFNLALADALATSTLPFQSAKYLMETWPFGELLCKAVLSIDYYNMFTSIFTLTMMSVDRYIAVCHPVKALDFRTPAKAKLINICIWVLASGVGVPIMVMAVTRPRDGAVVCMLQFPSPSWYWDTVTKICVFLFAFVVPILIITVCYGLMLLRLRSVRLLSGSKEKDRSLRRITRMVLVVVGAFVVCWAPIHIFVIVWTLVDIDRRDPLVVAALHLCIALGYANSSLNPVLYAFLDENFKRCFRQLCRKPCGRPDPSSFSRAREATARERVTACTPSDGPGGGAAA
T2 sequence (P35372 whole entry): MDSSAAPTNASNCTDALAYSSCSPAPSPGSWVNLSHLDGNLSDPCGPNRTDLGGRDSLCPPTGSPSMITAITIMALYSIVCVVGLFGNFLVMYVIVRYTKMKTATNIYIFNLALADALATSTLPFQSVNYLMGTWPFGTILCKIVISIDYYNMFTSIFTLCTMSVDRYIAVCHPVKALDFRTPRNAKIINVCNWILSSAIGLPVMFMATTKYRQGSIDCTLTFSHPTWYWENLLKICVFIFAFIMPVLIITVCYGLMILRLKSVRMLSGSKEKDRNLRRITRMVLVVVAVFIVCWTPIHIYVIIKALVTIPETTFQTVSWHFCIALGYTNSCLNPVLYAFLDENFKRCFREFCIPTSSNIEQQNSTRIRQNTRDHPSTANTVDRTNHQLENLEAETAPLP

Take `C[C@@H](NC(=O)[C@@H](N)Cc1ccc(O)cc1)C(=O)NCC(=O)N(C)[C@@H](Cc1ccccc1)C(=O)NCCO`: the result in assay [1] was inactive.

Broadly, the Emax is the size of the effect at its maximum, as opposed to the concentration needed. A word on the EC50: it is the midpoint of the concentration-response curve. Take `C/C=C1/C[N+]2(CC3CC3)CC[C@]34C(=C(C(=O)OC)[C@H]1C[C@@H]32)Nc1ccccc14` (some centres not stated): at Mu-type opioid receptor [2], the outcome was inactive. In addition, the Emax at Mu-type opioid receptor [3] was < 10%; in assay [4] (filed as agonist), 113%. Also, the EC50 in assay [5] stood at 4700 nM.

With `C/C=C1/CN2CC[C@]34C(=C(C(=O)OC)[C@H]1C[C@H]23)Nc1ccc(-c2ccccc2)cc14`, the Emax was 106% at Mu-type opioid receptor [3] (filed as agonist) and 101% in assay [4] (filed as agonist). In addition, the outcome in assay [6] was inactive.

Take `C/C=C1/CN2CC[C@]34c5ccccc5N[C@@H]3[C@H](C(=O)OC)[C@H]1C[C@H]24`: the outcome (on Mu-type opioid receptor [2]; in assay [1]) was inactive. Further, the maximal effect (Emax) (on Mu-type opioid receptor [3]; in assay [4]) was < 10% in each case.

As for `COC(=O)C1=C2Nc3ccccc3[C@@]23CCN2C[C@@](O)(C(C)=O)[C@@H]1C[C@H]23`, the outcome (at Mu-type opioid receptor [2]; in assay [1]) was inactive. The Emax (on Mu-type opioid receptor [3]; in assay [4]) was < 10% each time.

Take `C/C=C1/CN2CC[C@]34c5cc(I)ccc5NC3C(C(=O)OC)[C@H]1C[C@H]24` (some centres not stated): the outcome (on Mu-type opioid receptor [2]; in assay [6]) was inactive. Besides, the values for the Emax (on Mu-type opioid receptor [3]; in assay [4] (filed as agonist)) were < 10% and 100%, respectively. For the same compound, the EC50 in assay [5] was 24 nM.

In the case of `C/C=C1/C[N+]2(CCC)CC[C@]34C(=C(C(=O)OC)[C@H]1C[C@@H]32)Nc1ccccc14` (some centres not stated), the result (at Mu-type opioid receptor [2]; in assay [1]) was inactive. The Emax (at Mu-type opioid receptor [3]; in assay [4]) was < 10% each time.

Consider `COC(=O)C1=C2Nc3ccc(Br)cc3[C@@]23CCN2C[C@@](O)([C@@H](C)O)[C@@H]1C[C@H]23`, for which the outcome (at Mu-type opioid receptor [2]; in assay [1]) was inactive. Moreover, the Emax (on Mu-type opioid receptor [3]; in assay [4]) was < 10% throughout.

As for `C/C=C1/C[N+]2(Cc3ccccc3)CC[C@]34C(=C(C(=O)OC)[C@H]1C[C@@H]32)Nc1ccccc14` (some centres not stated), the Emax was 112% on Mu-type opioid receptor [3] (filed as agonist) and < 10% in assay [4]. Further, the outcome in assay [1] was inactive.

As for `C=CC[N+]12CC[C@]34C(=C(C(=O)OC)[C@@H](C[C@@H]31)/C(=C\C)C2)Nc1ccccc14` (some centres not stated), the outcome (at Mu-type opioid receptor [2]; in assay [1]) was inactive. The Emax (at Mu-type opioid receptor [3]; in assay [4]) was < 10% throughout.

`CC[C@@H]1CN2CC[C@]34c5ccccc5N[C@@H]3[C@H](C(=O)OC)[C@H]1C[C@H]24`: the result (at Mu-type opioid receptor [2]; in assay [1]) was inactive. Besides, the Emax (on Mu-type opioid receptor [3]; in assay [4]) was < 10% throughout.

In the case of `C/C=C1/C[N+]2(CC3CC3)CC[C@]34C(=C(C(=O)OC)[C@H]1C[C@@H]32)Nc1ccc(Br)cc14` (some centres not stated), the outcome on Mu-type opioid receptor [2] was inactive. In addition, the values for the Emax (on Mu-type opioid receptor [3]; in assay [4] (filed as agonist)) were < 10% and 94%, respectively.

As to `C=CC[N+]12CC[C@]34C(=C(C(=O)OC)[C@@H](C[C@@H]31)/C(=C\C)C2)Nc1ccc(Br)cc14` (some centres not stated), the result at Mu-type opioid receptor [2] was inactive. In addition, the results for the maximal response (Emax) (on Mu-type opioid receptor [3]; in assay [4] (filed as agonist)) were < 10% and 100%, respectively. In assay [5], the EC50 came out at 650 nM.

On to `COC(=O)C1=C2Nc3ccccc3[C@@]23CCN2C[C@@](O)([C@@H](C)O)[C@@H]1C[C@H]23`, for which the result (at Mu-type opioid receptor [2]; in assay [1]) was inactive. Also, the maximal effect (Emax) (on Mu-type opioid receptor [3]; in assay [4]) was < 10% in each case.

`C/C=C1/C[N+]2(C)CC[C@]34C(=C(C(=O)OC)[C@H]1C[C@@H]32)Nc1ccc(Br)cc14` (some centres not stated): at Mu-type opioid receptor [2], the outcome was inactive. For the same compound, the Emax on Mu-type opioid receptor [3] is < 10%; in assay [4] (filed as agonist) it was 102%. Further, the 50% effective concentration (EC50) in assay [5] was 940 nM.

Turning to `C/C=C1/C[N+]2(C)CC[C@]34C(=C(C(=O)OC)[C@H]1C[C@@H]32)Nc1ccccc14` (some centres not stated), the outcome (at Mu-type opioid receptor [2]; in assay [1]) was inactive. The Emax (on Mu-type opioid receptor [3]; in assay [4]) was < 10% each time.

Regarding `C/C=C1/CN2CC[C@]34C(=C(C(=O)OC)[C@H]1C[C@H]23)Nc1ccc(C#N)cc14`, the outcome (at Mu-type opioid receptor [2]; in assay [6]) was inactive. Further, the results for the Emax (on Mu-type opioid receptor [3]; in assay [4] (filed as agonist)) were < 10% and 102%, respectively. Besides, in assay [5], the EC50 was found to be 81 nM.

On to `CC[C@@H]1CN2CC[C@]34C(=C(C(=O)OC)[C@H]1C[C@H]23)Nc1ccccc14`, for which, at Mu-type opioid receptor [2], the result was inactive. In addition, the Emax on Mu-type opioid receptor [3] is < 10%; in assay [4] (filed as agonist), 99%. The EC50 in assay [5] worked out at 1600 nM.

With `C/C=C1/CN2CC[C@]34c5cc(Br)ccc5NC3C(C(=O)OC)[C@H]1C[C@H]24` (some centres not stated), the Emax in assay [4] (filed as agonist) is 100%.

As to `C/C=C1/CN2CC[C@]34C(=C(C(=O)OC)[C@H]1C[C@H]23)Nc1ccc(-c2ccsc2)cc14`, the Emax at Mu-type opioid receptor [3] (filed as agonist) was found to be 107%; in assay [4] (filed as agonist), 104%. Also, the result in assay [6] was inactive.
